Literature values, collected in patent US20210321634A1, “Lactobacillus Acidipiscis, Fermented Soymilk, and Preparation Method and Use Thereof” (Hebei Agricultural University, priority 2020, published 2021).

Assays:
[1] = compared with daidzein
[2] = compared with daidzein and genistein

Structure (SMILES): O=C1c2ccc(O)cc2OCC1c1ccc(O)cc1 (stereo not drawn) [DHD, dihydrodaidzein]
- cardiovascular protective activity [1]: significantly higher
- DPPH free radical scavenging activity [2]: significantly higher

Structure (SMILES): O=C1c2c(O)cc(O)cc2OCC1c1ccc(O)cc1 (stereo not drawn) [DHG, dihydrogenistein]
- DPPH free radical scavenging activity [2]: significantly higher
